This is an account of results in patent publication US9669004B2 (THE ADMINISTRATORS OF THE TULANE EDUCATIONAL FUND, priority 2010, dated 2017).

“Also recorded” adds a separate entry of the source.

The test system of test [1] is E2 stimulation on ERE transcriptional activity in MCF-7 cells. Kind of test: ERE luciferase reporter gene assay in the presence of 0.1 nM E2, antiestrogenic activity. To be noted: for inhibition at 25 µM: Homo sapiens, MCF7, 25 μM (highest concentration) plus 0.1 nM E2, read-out: reduction of estradiol-dependent luciferase activity. In kind it is cell-based. The method, then: MCF-7 cells were transiently transfected with pGL2-ERE2x-TK-luciferase plasmid. […] The luciferase activities of the treated cells were then measured by the ERE reporter gene assay.

The test system of test [2] is ERE transcriptional activity in MCF-7 cells. Kind of test: ERE luciferase reporter gene assay, estrogenic activity. In kind it is cell-based. Particulars: for ERE transcriptional activity induced: 25 μM; for estrogenic (ERE) activity, in words: MCF-7, compound alone. Here is the method: MCF-7 cells were transiently transfected with pGL2-ERE2x-TK-luciferase plasmid. […] While this order varied slightly as analog concentrations were increased further to 25 μM, several trends have emerged in the dose-dependent data. […] Second, shorter alkyl groups appear to have less effect on the reduction of ER agonist activity than their longer, bulkier counterparts.

In test [3] the test system is MCF-7 cell tumorigenesis. Put plainly: estrogen stimulated MCF-7 cell tumorigenesis xenograft model. Particulars: day 37 post cell injection; mean±SEM; control 351.17±43.88. The class given is in vivo, Nu/Nu mice. Here is the method: 4-6 week old ovariectomized female Nu/Nu mice were injected bilaterally in the mammary fat pad (MFP) with 5×10^6 MCF-7 cells in matrigel (reduced factor). […] Tumors were allowed to form and at day 15 post cell injection mice were randomized into groups (n=5). Animals were treated daily with i.p. injections of either vehicle (1:5 DMSO/PBS) or analog 2 (50 mg/kg/animal). Tamoxifen animals were implanted with a slow release tamoxifen pellet in the lateral area of the neck (opposite side from E2 pellet). ICI animals were given a onetime i.p. injection of ICI 182,780 (5 mg in castor oil). Tumor size was measured 3 times weekly using digital calipers. Data represented as mean tumor volume±SEM.
Due to the anti-estrogenic effects of analog 2 on MCF-7 cells observed in the in vitro biological assays, this analog was selected for further testing of estrogen stimulated MCF-7 cell tumorigenesis using a xenograft model. Ovariectomized female immunocompromised mice were injected with MCF-7 cells and supplemented with exogenous estrogen pellets. Once tumors were palpable animals were treated with analog 2, tamoxifen, or ICI and tumor volume compared to vehicle control animals.
Xenograft experiments were conducted using previously published protocols. Briefly, 4-6 week old female ovariectomized NU/Nu mice were obtained from Charles River Laboratories (Wilmington, Mass.). The animals were allowed a period of adaptation in a sterile and pathogen-free environment with phytoestrogen-free food and water ad libitum. MCF-7 cells were harvested in the exponential growth phase using a PBS/EDTA solution and washed. Mice were injected bilaterally in the mammary fat pad (M.F.P) with 5×10^6 viable cells suspended in 50 μL sterile PBS mixed with 100 μL Matrigel (reduced factor; BD Biosciences, Bedford, Mass.). […] All procedures in animals were carried out under anesthesia using a mix of isofluorane and oxygen delivered by mask. […] Tumor size was measured 3 times weekly using digital calipers. The volume of the tumor was calculated using the following formula: 4/3 πLS^2 (L=larger radius; S=shorter radius). […]

The test system of test [4] is MCF-7 cells. Put plainly: clonogenic (colony) assay. The class given is cell-based. The method, then: MCF-7 cells were placed in phenol red-free DMEM supplemented with 5% dextran-coated charcoal-treated FBS for 48 h before plating. MCF-7 cells (1000) were plated in six well plates. […] Colonies of >50 cells were counted as positive. Results are normalized to percentage of clonogenic survival from DMSO control cells.

Test [5] has as its system progesterone receptor (PgR) gene expression in MCF-7 cells. Kind of test: PgR mRNA expression by quantitative real time RT-PCR. In kind it is cell-based. Particulars: for level of PgR expression: ligand in the presence of 0.1 nM E2, MCF-7 (E2 alone 5-fold); for increase in PgR expression compared with control: ligands only, vs DMSO. The source says:
Total RNA was isolated from MCF-7 cells, reverse-transcribed into cDNA and subjected to real-time RT-PCR analysis for quantification. […] Results are expressed as the mean unit±SEM.

For test [6], the system named is MDA-MB-231 cells. Kind of test: MDA-MB-231 xenograft tumor volume. In kind it is in vivo, CB-17/SCID mice. The method, then:
4-6 week old female CB-17/SCID mice were allowed a period of adaptation in a sterile and pathogen-free environment with phytoestrogen-free food and water ad libitum. MDA-MB-231 cells were harvested in the exponential growth phase using a PBS/EDTA solution and washed. Mice were injected bilaterally in the mammary fat pad (MFP) with 5×10^6 viable cells suspended in 50 μL sterile PBS mixed with 100 μL Matrigel (reduced factor; BD Biosciences, Bedford, Mass.). Tumors were allowed to form, and at day 4 post cell injection mice were randomized into groups of 5 mice each. Mice were treated daily with intra-peritoneal (IP) injections of either vehicle (DMSO) or analog 2 (50 mg/kg/animal/day) for 14 days. External tumor size was measured using digital calipers and tumor volume calculated using the formula: 4/3 π LS^2 (L=larger radius; S=shorter radius). At necropsy, animals were euthanized by cervical dislocation after exposure to CO2. […] This trend continued until the mice were euthanized at day 18, where tumor volume for control mice averaged 188±18.78 mm^3 and the tumor volume for mice treated with analog 2 averaged 91.11±10.15 mm^3.

The subject of test [7] is MDA-MB-231. Kind of test: transwell migration assay. To be noted: 10 μM, 24 hours. In kind it is cell-based. The method, then: (§1) TNBC cells were seeded (2.5×10^4 in 500 μl 10% DMEM) in the upper chamber of a 24 well transwell system. DMEM supplemented with FBS (10%) was used as a chemoattractant in the lower wells. After 24 hours of treatment (DMSO or analog 2 10 μM), membranes were scrubbed, stained with 0.1% crystal violet, and the number of migrated cells analyzed by microscopy. Data represented as normalized means of triplicate experiments±SEM. […] The TNBC phenotype is characterized by highly aggressive and migratory cells. The ability of analog 2 to inhibit this migration indicates its potential as a novel anti-metastatic therapeutic in the triple-negative breast carcinoma setting.

The test system of test [8] is BT-549. Put plainly: transwell migration assay. In kind it is cell-based. Particulars: 10 μM, 24 hours. The method, then: as §1
For test [9], the system named is MDA-MB-157. Kind of test: transwell migration assay. The class given is cell-based. To be noted: 10 μM, 24 hours. Here is the method: as §1
Test [10] deals with AKT and mTOR phosphorylation in MDA-MB-231 cells. Put plainly: immunoblot of phospho-AKT and mTOR. The class given is cell-based. Here is the method: The effects of analog 2 on TNBC may be mediated via alterations in the PI3K/AKT/mTOR pathway. After 72 hours in 5% charcoal-stripped fetal bovine serum (CSFBS) DMEM phenol-free medium, MDA-MB-231 cells were re-fed with either medium-containing vehicle, analog 2 (10 μM, 4 hours), analog 2 (4 hours) followed by EGF stimulation (50 ng/mL, 30 minutes), or EGF alone (30 minutes). Membranes were probed with primary antibodies according to manufacturers' protocol. Antibodies: phosho-AKT (S473 and T308), mTOR ([…]), and corresponding total protein antibodies (Cell Signaling), using rho as a loading control (Santa Cruz).

As for `CCCOc1ccc2c(=O)c(-c3ccc(O)cc3)coc2c1` [3c, 3-(4-Hydroxyphenyl)-7-propoxychromen-4-one], the inhibition at 25 µM in test [1] was less than 47%. Also, in test [2] (MCF-7, normalized to E2 (100)), the “ERE transcriptional activity induced” value came out at 38.4%.
With `CCOc1ccc2c(=O)c(-c3ccc(O)cc3)coc2c1` [3b, 3-(4-Hydroxyphenyl)-7-ethoxychromen-4-one], the inhibition at 25 µM in test [1] is less than 47%. In addition, the “ERE transcriptional activity induced” value in test [2] (MCF-7, normalized to E2 (100)) is 80.4%.
Regarding `CC/C(=C(\c1ccccc1)c1ccc(OCCN(C)C)cc1)c1ccccc1` [tamoxifen], the tumor volume in test [3] came to 178.12±41.18 mm3.
For the compound `COc1ccc2c(=O)c(-c3ccc(O)cc3)coc2c1` [3a, 3-(4-Hydroxyphenyl)-7-methoxychromen-4-one], the “increase of cell proliferation (clonogenicity)” value in test [4] (1 μM, without E2, vs DMSO) was 43%. The “increase in clonogenicity of MCF-7 cells” value in test [4] (10 μM, without E2, vs DMSO) was found to be 24%. Moreover, the “level of PgR expression” value in test [5] was determined as 4 fold. The “increase in PgR expression compared with control” value (shortened to “increase in PgR expression”) in test [5] (MCF-7) was found to be 3 fold. For the same compound, the inhibition at 25 µM in [1] was less than 47%. Further, the ERE activity in [2] (10 μM, MCF-7, normalized to E2 (100)) is reported as 38%. In addition, in test [2] (MCF-7, normalized to E2 (100)), the “ERE transcriptional activity induced” value came out at 70.9%.
Take `CC(C)COc1ccc2c(=O)c(-c3ccc(O)cc3)coc2c1` [3f, 3-(4-Hydroxyphenyl)-7-isobutoxychromen-4-one]: the inhibition at 25 µM in [1] was more than 60%. Besides, in [2], the “estrogenic (ERE) activity, in words” value is reported as “negligible ERE activity”.
In the case of `C[C@]12CC[C@@H]3c4ccc(O)cc4CC[C@H]3[C@@H]1CC[C@@H]2O` [E2, 17β-estradiol, reference compound], in test [4] (0.1 nM, vs DMSO treated controls), the “increase in clonogenicity of MCF-7 cells” value is recorded as “approximately 3 fold”. The “increase in PgR expression” value in test [5] (MCF-7) is 5 fold.
As for `CCCCCCOc1ccc2c(=O)c(-c3ccc(O)cc3)coc2c1` [3h, 7-Hexyloxy-3-(4-hydroxyphenyl)chromen-4-one], the inhibition at 25 µM in test [1] was less than 47%.
In the case of `CC1(C)C=Cc2c(ccc3c(=O)c(-c4ccc(O)cc4)coc23)O1` [compound 2, 3-(4-Hydroxyphenyl)-8,8-dimethyl-8H-pyrano[2,3-f]chromen-4-one], the tumor volume in [3] is 241.53±68.29 mm3; in test [6] (day 18, 50 mg/kg/animal/day IP for 14 days, control 188±18.78), 91.11±10.15 mm^3. In addition, the “tumor volume vs control, in words” value in test [6] (seven days after cell injection, three days' treatment) was “statistically less than those of control mice”. Besides, the “clonogenicity in the presence of E2, in words” value in [4] (10 μM plus 0.1 nM estradiol) is on record as “inhibit the clonogenicity of MCF-7 cells completely”. The “cell clonogenicity, in words” value in test [4] (10 μM, without E2) was “completely blocked cell clonogenicity”. Further, the inhibition at 1 µM in [4] (Homo sapiens, MCF7, read-out: inhibition of clonogenicity) turned out to be 15%. For the same compound, the “level of PgR expression” value in test [5] was 3 fold. Moreover, the “PgR expression compared with DMSO, in words” value in test [5] (ligand only, MCF-7) is “decrease in PgR expression”. Moreover, the “number of migrated cells compared to control (normalized to 100%)” value in [7] is on record as 0%; in test [8], 0.08%; in test [9], 25.57%. In test [1] (25 μM plus 0.1 nM E2), the “blocking of ERE activity, in words” value is on record as “completely blocking ERE activity”. In addition, the “effect on EGF-stimulated AKT and mTOR phosphorylation, in words” value in test [10] (10 μM 4 hours then EGF 50 ng/mL 30 minutes) was “significantly abrogate the effects of EGF stimulation on AKT and mTOR phosphorylation”. Further, the “phospho-levels of AKT at S473 and T308, in words” value in test [10] (10 μM, 4 hours) is recorded as “significant decreases”. The “estrogenic (ERE) activity, in words” value in test [2] is “little or no estrogen activity; also recorded: negligible ERE activity”.
`O=c1c(-c2ccc(O)cc2)coc2cc(OC3CCCC3)ccc12` [3g, 7-Cyclopentyloxy-3-(4-hydroxyphenyl)chromen-4-one]: the inhibition at 25 µM in [1] is more than 60%. Also, in test [2], the “estrogenic (ERE) activity, in words” value is reported as “negligible ERE activity”.
Consider `CCCCOc1ccc2c(=O)c(-c3ccc(O)cc3)coc2c1` [3e, 7-Butoxy-3-(4-hydroxyphenyl)chromen-4-one], for which the inhibition at 25 µM in test [1] is less than 47%.
Still for that read-out and setting: the figure for `CC(C)Oc1ccc2c(=O)c(-c3ccc(O)cc3)coc2c1` [3d, 3-(4-Hydroxyphenyl)-7-isopropoxychromen-4-one] is more than 60%.
On to `C[C@]12CC[C@@H]3c4ccc(O)cc4C[C@@H](CCCCCCCCC[S+]([O-])CCCC(F)(F)C(F)(F)F)[C@H]3[C@@H]1CC[C@@H]2O` (stereo partly drawn) [ICI 182,780], for which the tumor volume in test [3] was 130.95±23.49 mm3.
Consider `O=c1c(-c2ccc(O)cc2)coc2cc(O)ccc12` [daidzein, reference compound], for which the “increase in clonogenicity of MCF-7 cells” value in [4] (1 μM, without E2, vs DMSO) is “over 3 fold”; in [4] (10 μM, without E2, vs DMSO), 2.5 times. The “level of PgR expression” value in test [5] is given as 5 fold. In [5] (MCF-7), the “increase in PgR expression” value turned out to be 3 fold. Further, the “estrogenic (ERE) activity, in words” value in [2] is listed as “more potent estrogenic activity than any of its derivatives”.
